Results on one molecule are retold here after patent US9951089B2, “Methods of treating a fatty acid amide hydrolase-mediated condition” (INFINITY PHARMACEUTICALS, INC., priority 2010, dated 2018).

For the assay, the target named is T1, rat FAAH (Rattus norvegicus, UniProt P97612).
T1 construct: encoding for amino acids 32-579 and an N-terminal His-tag; His-tag (N); made in house; host or cells: E. coli BL21 (DE3)
T1 sequence (P97612 32-579): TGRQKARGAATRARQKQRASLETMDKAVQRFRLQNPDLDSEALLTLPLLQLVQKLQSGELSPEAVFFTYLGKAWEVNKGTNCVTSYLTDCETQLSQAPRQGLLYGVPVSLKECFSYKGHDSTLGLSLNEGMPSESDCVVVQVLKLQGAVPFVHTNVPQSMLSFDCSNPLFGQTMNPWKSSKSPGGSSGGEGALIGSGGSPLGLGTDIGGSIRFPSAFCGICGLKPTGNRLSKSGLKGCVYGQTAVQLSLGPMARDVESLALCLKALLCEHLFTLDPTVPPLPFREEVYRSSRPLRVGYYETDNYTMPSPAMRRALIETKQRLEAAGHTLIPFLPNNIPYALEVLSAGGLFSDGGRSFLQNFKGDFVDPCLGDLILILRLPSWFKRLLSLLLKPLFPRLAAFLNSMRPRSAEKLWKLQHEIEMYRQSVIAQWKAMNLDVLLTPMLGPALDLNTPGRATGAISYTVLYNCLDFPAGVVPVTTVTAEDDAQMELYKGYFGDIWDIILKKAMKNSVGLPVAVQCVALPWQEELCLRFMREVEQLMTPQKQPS
The assay can be described thus: Ki determination, rat FAAH (AMC-arachidonoyl amide hydrolysis, fluorescence end point). To be noted: rFAAH 6 nM, substrate 20 μM, 30 min preincubation, 4 hours at room temperature. The assay is classed as biochemical. As for the experimental part: An N-terminal transmembrane domain deleted rat FAAH (rFAAH) was cloned as described in Patricelli et al., Biochemistry (1998) 37:15177-15187, encoding for amino acids 32-579 and an N-terminal His-tag, herein referred to as rFAAH. E. coli BL21 (DE3) were transformed according to manufacturer protocols (Invitrogen) and rFAAH was expressed and purified from a modified procedure described in Patricelli et al., 1998.
Briefly, 8 L of cells were cultured to an OD600nm of 0.6 at 37° C., and FAAH expression induced by 1 mM IPTG, followed by 4 hours of growth. Cells were pelleted by centrifugation at 5000×g to generate the cell paste. […]
Soluble rFAAH was purified from the supernatant using nickel (Ni), heparin and size exclusion chromatography (SEC) columns. […] Eluted samples were pooled, concentrated to ˜5 mg/mL and final rFAAH concentrations determined by measuring the absorbance at 280 nm, using an extinction coefficient of ϵ=60850 M^−1 cm^−1. […]
The Ki of a test compound was determined for rat and human FAAH by measuring the dose dependent inhibition of AMC-Arachidonoyl amide hydrolysis as an end point read. Assays were carried out in Corning COSTAR® 384 well flat black bottom microtiter plates (Catalog #3654) and monitored in an Envision 2100 multilabel plate reader (Perkin Elmer-Wallac), with a 355 nm (40 nm band pass) excitation filter and 460 nm (25 nm bandpass) emission filter. […]

As to `OB(O)c1ccc(-c2ccc(B(O)O)c(F)c2)cc1F` [IMP-4], the Ki (in general, the dissociation constant of the complex between target and ligand, obtained from inhibition or displacement) is 5.1 nM.
